ChEMBL document CHEMBL3045251, “Ethephon elicits protection against Erysiphe necator in grapevine” (2008)
Calls of active or inactive are those of the source. The rule behind the calls is not given here.

Tests used:
Erysiphe necator [1] = assay: Fungicidal activity against Erysiphe necator infected 72 hr compound pre-treated grapevine leaf disks assessed as reduction in fungal colonization measured 14 days post fungal inoculation; type: functional; design: scale not given: the % may be the effect or the level left
Vitis vinifera [2] = assay: Induction of delta-viniferin accumulation in Vitis vinifera cv. Cabernet Sauvignon foliar cuttings assessed per dry weight of plant at 0.5 g/L measured after 72 hr post dose by fluorimetry; type: functional
Vitis vinifera [3] = assay: Increase in […] class IV chitinase gene expression in Vitis vinifera cv. Cabernet Sauvignon foliar cuttings at 0.5 g/L measured after 6 hr post dose by RTq-PCR method relative to untreated control; type: functional
Vitis vinifera [4] = assay: Induction of trans-resveratrol accumulation in Vitis vinifera cv. Cabernet Sauvignon foliar cuttings assessed per dry weight of plant at 0.5 g/L measured after 24 to 72 hr post dose by fluorimetry; type: functional
Vitis vinifera [5] = assay: Increase in phenylalanine ammonia lyase gene expression in Vitis vinifera cv. Cabernet Sauvignon foliar cuttings at 0.5 g/L measured after 6 hr post dose by RTq-PCR method relative to untreated control; type: functional
Vitis vinifera [6] = assay: Induction of trans-piceid accumulation in Vitis vinifera cv. Cabernet Sauvignon foliar cuttings assessed per dry weight of plant at 0.5 g/L measured after 72 hr post dose by fluorimetry; type: functional
Vitis vinifera [7] = assay: Induction of delta-viniferin accumulation in Vitis vinifera cv. Cabernet Sauvignon foliar cuttings assessed per dry weight of plant at 0.5 g/L measured after 24 hr post dose by fluorimetry; type: functional
Vitis vinifera [8] = assay: Induction of epsilon-viniferin accumulation in Vitis vinifera cv. Cabernet Sauvignon foliar cuttings assessed per dry weight of plant at 0.5 g/L measured after 24 hr post dose by fluorimetry; type: functional
Vitis vinifera [9] = assay: Induction of pterostilbene accumulation in Vitis vinifera cv. Cabernet Sauvignon foliar cuttings assessed per dry weight of plant at 0.5 g/L measured after 24 to 72 hr post dose by fluorimetry; type: functional
Vitis vinifera [10] = assay: Increase in phenylalanine stilbene synthase gene expression in Vitis vinifera cv. Cabernet Sauvignon foliar cuttings at 0.5 g/L measured after 6 hr post dose by RTq-PCR method relative to untreated control; type: functional
Erysiphe necator [11] = assay: Fungicidal activity against Erysiphe necator infected 72 hr compound pre-treated grapevine foliar cuttings assessed as reduction in powdery mildew infection measured 14 days post fungal inoculation; type: functional; design: scale not given: the % may be the effect or the level left
Vitis vinifera [12] = assay: Induction of trans-stilbenes in Vitis vinifera cv. Cabernet Sauvignon foliar cuttings at 0.5 g/L measured after 20 to 80 hr post dose by fluorimetry; type: functional, organism-based
Vitis vinifera [13] = assay: Increase in […] protease inhibitor gene expression in Vitis vinifera cv. Cabernet Sauvignon foliar cuttings at 0.5 g/L measured after 12 to 72 hr post dose by RTq-PCR method relative to untreated control; type: functional
Vitis vinifera [14] = assay: Increase in beta-1,3- glucanase gene expression in Vitis vinifera cv. Cabernet Sauvignon foliar cuttings at 0.5 g/L measured after 12 to 24 hr post dose by RTq-PCR method relative to untreated control; type: functional
Vitis vinifera [15] = assay: Increase in polygalacturonase-inhibiting protein gene expression in Vitis vinifera cv. Cabernet Sauvignon foliar cuttings at 0.5 g/L measured after 12 to 24 hr post dose by RTq-PCR method relative to untreated control; type: functional

O=P(O)(O)CCCl [ETHEPHON]
Activity (Erysiphe necator [1]): 64% | Activity (Vitis vinifera [2]): 6 nmol/g | fold change (FC) (Vitis vinifera [3]): 11 | Activity (Vitis vinifera [4]): 133 nmol/g | fold change (FC) (Vitis vinifera [5]): 10 | Activity (Vitis vinifera [6]): 312 nmol/g | Activity (Vitis vinifera [7]): 12 nmol/g | Activity (Vitis vinifera [8]): 58 nmol/g | Activity (Vitis vinifera [9]): 10 nmol/g | fold change (FC) (Vitis vinifera [10]): 67 | Activity (Erysiphe necator [11]): 70% | Activity (Vitis vinifera [12]): Active | fold change (FC) (Vitis vinifera [13]): 9 | fold change (FC) (Vitis vinifera [14]): 33 | fold change (FC) (Vitis vinifera [15]): 22
